Laboratory results published in patent publication US10266565B2, “Peptide mimetic ligands of polo-like kinase 1 polo box domain and methods of use” (The United States of America, as represented by the …, priority 2011, dated 2019).
“Also recorded” adds a separate entry of the source. *1 amine or outer side, *2 acyl side, *3 side chain or, on linkers, in order; H or OH if unused. Where a SMILES comes first, the peptide text is derived from it. Where no end group is shown, it is not given here. [ ]: non-standard residue; d: D form. Abu(3R-Me,4-PO3H2) = C[C@@H](CP(=O)(O)O)[C@H](N)C(=O)O; X1 = C[C@H]([C@H](N[*:1])C(=O)[*:2])C(F)(F)P(=O)(O)O; pT = C[C@@H](OP(=O)(O)O)[C@H](N)C(=O)O

What was measured:
[1] = molecular target: Plk1 PBD (Homo sapiens, UniProt P53350); assay: ELISA-based PBD-binding inhibition assay (immobilized biotinylated p-T78 peptide, HA-EGFP-Plk1 lysates); details: relative to the comparator named in the sentence
Description: The wells were washed once with PBS plus 0.05% Tween20 (PBST), and incubated with 200 μl of PBS plus 1% BSA (blocking buffer) for 1 h to prevent non-specific binding. […] Following the incubation, ELISA plates were washed 4 times with PBST. To detect bound HA-EGFP-Plk1, the plates were probed for 2 h with 100 μl/well of anti-HA antibody at a concentration of 0.5 μg/ml in blocking buffer and then washed 5 times. The plates were further probed for 1 h with 100 μl/well of HRP-conjugated secondary antibody (GE Healthcare, Piscataway, N.J.) at a 1:1,000 dilution in blocking buffer. The plates were washed 5 times with PBST and incubated with 100 μl/well of 3,3′,5,5′-tetramethylbenzidine (TMB) solution (Sigma, St. Louis, Mo.) as a substrate until a desired absorbance was reached. […] The optical density (O.D.) was measured at 450 nm by using an ELISA plate reader (Molecular Devices, Sunnyvale, Calif.).
A biotinylated p-T78 peptide was first diluted with IX coating solution (KPL Inc., Gaithersburg, Md.) to a final concentration of 0.3 μM, and then 100 μL of the resulting solution was immobilized onto a 96-well streptavidin-coated plate (Nalgene Nunc, Rochester, N.Y.). […] The plates were washed 5 times with PBST and incubated with 100 μL/well of 3,3′,5,5′-tetramethylbenzidine (TMB) substrate solution (Sigma, St. Louis, Mo.) until a desired absorbance was achieved. […]

[2] = molecular target: T1, Plk1 (Homo sapiens, UniProt P53350); assay: Peptide pull-down assay with bead-immobilized peptides, Plk1; assay type: binding; details: mitotic cell lysates
T1 construct: we used total lysates prepared from mitotic HeLa cells; endogenous in cells; host or cells: mitotic (nocodazole-arrested) HeLa cells
Description: For Plk1 pull-down assays with immobilized peptides, we used total lysates prepared from mitotic HeLa cells. […] Cells treated with 200 ng/ml of nocodazole for 16 h were lysed in TBSN buffer {20 mM Tris-Cl (pH8.0), 150 mM NaCl, 0.5% NP-40, 5 mM EGTA, 1.5 mM EDTA, 0.5 mM Na3VO4, 20 mM p-nitrophenyl phosphate, and protease inhibitor cocktail (Roche, Nutley, N.J.)}, and then clarified by centrifugation at 15,000×g for 20 min at 4° C. The resulting lysates were incubated with bead-immobilized peptides (40 μM per binding) for 2 h, precipitated, washed, and then boiled in sodium dodecyl sulfate (SDS) sample buffer to elute the associated proteins. Samples were separated by 10% SDS-polyacrylamide gel electrophoresis (PAGE), and then either stained with silver or transferred to PVDF membrane for immunoblotting analysis with anti-Plk1 antibody using the enhanced chemiluminescence (ECL) detection system (Pierce). […]

[3] = molecular target: Plk1 PBD-p-Cdc25C interaction (Homo sapiens, UniProt P53350); assay: Competition of the PBD-p-Cdc25C interaction in mitotic HeLa lysates; assay type: binding; details: GST-PBD
Description: For p-Cdc25C pull-down assays, either bead-bound GST-PBD or the corresponding GST-PBD(H538A K540M) mutant was incubated with mitotic HeLa lysates in TBSN buffer supplemented with 2 mM DTT. To test the ability of the indicated peptides to compete the PBD-p-Cdc25C interaction, lysates were pre-incubated with GST-PBD for 1.5 h prior to the addition of the indicated peptides. Lysates were then incubated for additional 1.5 h, washed in the binding buffer, and then analyzed. For competition of the interaction between p-Cdc25C and endogenous Plk1, mitotic lysates were prepared in TBSN and incubated with the indicated peptides for 1 h before subjecting to immunoprecipitation with anti-Plk1 antibody.

[4] = molecular target: T2, Plk2 PBD (Homo sapiens, UniProt Q9NYY3); assay: Isothermal titration calorimetry with recombinant Plk2 PBD
T2 sequence (Q9NYY3 373-685): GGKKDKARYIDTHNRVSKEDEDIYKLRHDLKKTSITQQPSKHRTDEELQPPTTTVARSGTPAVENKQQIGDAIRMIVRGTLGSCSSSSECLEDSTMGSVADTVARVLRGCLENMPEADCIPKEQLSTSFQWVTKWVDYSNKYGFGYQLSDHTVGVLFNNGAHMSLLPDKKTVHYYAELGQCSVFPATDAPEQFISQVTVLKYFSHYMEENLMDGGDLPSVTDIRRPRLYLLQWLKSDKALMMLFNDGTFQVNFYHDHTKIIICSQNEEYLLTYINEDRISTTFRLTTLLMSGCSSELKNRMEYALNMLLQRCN
Description: The calorimetric titrations were carried out using purified recombinant PBDs (for Plk1 and Plk2) from bacterial cells and the indicated peptides.
The calorimetric titrations were performed on a VP-ITC titration calorimeter (Microcal, Inc., Northampton, Mass.). In a typical experiment, 5 l aliquots of a phosphorylated peptide were injected from a 250 l syringe into a rapidly mixing (300 rpm) solution of Plk1 PBD (cell volume=1.3472 ml). Control experiments involved injecting identical amounts of the peptide solution into buffer without Plk1 PBD. […] Titrations were carried out at 25° C. in 20 mM Tris-Cl (pH 7.5), 100 mM NaCl, 3 mM DTT. The isotherms, corrected for dilution/buffer effects, were fit using the Origin ITC Analysis software according to manufacturer's protocols. A nonlinear least-square method was used to fit the titration data and to calculate the errors. Consistent with the structural data, a 1:1 stoichiometry was assumed and the data were fit to a one-site binding model. From the binding curve, values for enthalpy and binding affinity were extracted. Thermodynamic parameters were calculated using ΔG=−RTlnKa, ΔG=ΔH−TΔS.
Full length PBD was dialyzed against a low salt buffer (20 mM Tris-Cl, pH 7.5, 100 mM NaCl, 3 mM DTT), and used in calorimetry experiments.

[5] = Toxicity in cell-based experiments
[6] = molecular target: T3, Plk2 (Mus musculus, UniProt P53351, K108M); assay: Peptide pull-down assay with bead-immobilized peptides, Plk2; assay type: binding
T3 construct: expressed in transfected cells
Description: After incubating the cell lysates prepared in TBSN buffer {20 mM Tris-Cl (pH8.0), 150 mM NaCl, 0.5% Np-40, 5 mM EGTA, 1.5 mM EDTA, 20 mM p-nitrophenylphosphate and protease inhibitor cocktail (Roche, Nutley, N.J.)} with the bead-immobilized ligands for 2 h at 4° C., the ligand-associating proteins were precipitated, washed, boiled in sodium dodecyl sulfate (SDS) sample buffer, separated by 8% SDS-polyacrylamide gel electrophoresis (PAGE), and then subjected to immunoblotting analysis with anti-Flag antibody and the enhanced chemilunimescence (ECL) detection system (Pierce). The same membrane was also stained with Coomassies (CBB). Signal intensities were quantified using Image J program.
To investigate the binding specificity of p-T78 peptides to various Plks, Flag-Plk1 (K82M), Flag-Plk2(K108M)3 or Flag-Plk3(K52R) (a gift of Wei Dai, New York University School of Medicine, NY) construct was first transfected into HeLa cells. Cellular lysates were prepared as above, mixed, and then incubated in TBSN buffer with the immobilized peptides indicated.

[7] = molecular target: T4, Plk3 (Homo sapiens, UniProt Q9H4B4, K91R); assay: Peptide pull-down assay with bead-immobilized peptides, Plk3; assay type: binding
T4 construct: expressed in transfected cells; construct a gift of Wei Dai

[8] = tested on: HeLa cells; assay: Direct treatment of cultured HeLa cells (mitotic arrest, apoptotic cell death, Plk1 localization); assay type: cell-based; details: 200 μM
[9] = tested on: HeLa cells; details: Yun et al. 2009; cited from earlier work
[10] = molecular target: T5, recombinant Plk2 PBD (residues 373 to 685) (human) (UniProt Q9NYY3); assay: ITC
T5 sequence (looked up): T2 sequence (Q9NYY3 373-685)

[11] = molecular target: Flag-Plk2 (K108M) (UniProt Q9NYY3); assay: assay not stated at this place (peptide pull-down by paragraph 548)
[12] = molecular target: Flag-Plk1 (K82M) (UniProt P53350 1-603); assay: pull-down with bead-immobilized peptide, mitotic HeLa lysate
[13] = molecular target: T6, HA-EGFP-Plk1 (UniProt P53350 1-603); assay: competition ELISA, HA-EGFP-Plk1 lysate on immobilized biotin p-T78 9-mer
T6 construct: In lysates of mitotic 293A cells infected with adenovirus expressing HA-EGFP-Plk1

[14] = molecular target: T6, HA-EGFP-Plk1; assay: ELISA-based PBD-binding inhibition assay: peptide as competitor of the immobilized biotinylated 9-mer p-T78 peptide for HA-EGFP-Plk1 in mitotic 293A cell lysate; bound Plk1 detected with anti-HA, OD 450 nm
[15] = molecular target: T5, recombinant Plk2 PBD (residues 373 to 685) (human); assay: ITC; saturable binding not observed
[16] = molecular target: Flag-Plk2 (K108M) (UniProt Q9NYY3); assay: pull-down with bead-immobilized peptide, mixed Flag-Plk1/2/3 lysates (HeLa)

T6 sequence (P53350 whole entry): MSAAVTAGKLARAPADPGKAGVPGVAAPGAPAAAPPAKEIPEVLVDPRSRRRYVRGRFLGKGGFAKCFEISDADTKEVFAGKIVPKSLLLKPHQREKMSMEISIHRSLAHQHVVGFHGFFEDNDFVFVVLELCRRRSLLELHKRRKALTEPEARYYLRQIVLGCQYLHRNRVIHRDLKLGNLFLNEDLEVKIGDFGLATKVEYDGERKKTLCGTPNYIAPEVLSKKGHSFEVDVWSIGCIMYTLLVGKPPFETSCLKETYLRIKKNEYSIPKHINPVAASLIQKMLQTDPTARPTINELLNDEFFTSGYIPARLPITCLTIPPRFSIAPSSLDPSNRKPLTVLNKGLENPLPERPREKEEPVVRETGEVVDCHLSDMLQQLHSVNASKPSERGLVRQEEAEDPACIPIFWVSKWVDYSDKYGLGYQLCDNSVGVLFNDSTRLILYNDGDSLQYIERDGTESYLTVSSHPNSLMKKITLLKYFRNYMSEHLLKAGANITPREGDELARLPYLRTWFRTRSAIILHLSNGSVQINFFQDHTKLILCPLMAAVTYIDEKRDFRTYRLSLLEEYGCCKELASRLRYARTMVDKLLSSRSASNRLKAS
Chain of Plk1 PBD (P53350 whole entry): as above
Chain of Plk1 PBD-p-Cdc25C interaction (P53350 326-603 limits assumed): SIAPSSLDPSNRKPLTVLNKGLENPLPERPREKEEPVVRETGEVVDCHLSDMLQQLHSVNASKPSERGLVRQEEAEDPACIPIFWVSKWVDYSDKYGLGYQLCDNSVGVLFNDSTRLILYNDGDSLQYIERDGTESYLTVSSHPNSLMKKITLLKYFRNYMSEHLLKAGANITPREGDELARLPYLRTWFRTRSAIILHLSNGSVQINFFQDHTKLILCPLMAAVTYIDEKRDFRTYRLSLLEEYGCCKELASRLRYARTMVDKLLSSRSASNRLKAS
Chain of Flag-Plk1 (K82M) (P53350 whole entry K82M): as the sequence (P53350 whole entry) above, with K82M counted along it
T1 sequence (P53350 2-603): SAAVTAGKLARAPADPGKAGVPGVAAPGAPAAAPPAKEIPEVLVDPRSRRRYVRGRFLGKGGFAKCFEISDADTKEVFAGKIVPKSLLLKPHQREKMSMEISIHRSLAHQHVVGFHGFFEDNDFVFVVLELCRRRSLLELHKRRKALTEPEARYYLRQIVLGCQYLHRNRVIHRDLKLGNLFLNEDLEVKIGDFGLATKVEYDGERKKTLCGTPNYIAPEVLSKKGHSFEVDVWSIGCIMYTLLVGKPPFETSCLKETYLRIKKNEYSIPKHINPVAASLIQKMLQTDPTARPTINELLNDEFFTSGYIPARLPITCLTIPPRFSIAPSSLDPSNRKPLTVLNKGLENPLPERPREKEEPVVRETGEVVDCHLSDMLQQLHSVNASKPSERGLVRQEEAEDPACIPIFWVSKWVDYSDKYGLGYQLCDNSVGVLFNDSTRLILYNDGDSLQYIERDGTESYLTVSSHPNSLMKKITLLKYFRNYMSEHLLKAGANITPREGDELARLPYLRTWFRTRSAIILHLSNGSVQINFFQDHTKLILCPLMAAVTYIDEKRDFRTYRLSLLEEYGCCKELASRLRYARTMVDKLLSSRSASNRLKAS
T3 sequence (P53351 whole entry K108M): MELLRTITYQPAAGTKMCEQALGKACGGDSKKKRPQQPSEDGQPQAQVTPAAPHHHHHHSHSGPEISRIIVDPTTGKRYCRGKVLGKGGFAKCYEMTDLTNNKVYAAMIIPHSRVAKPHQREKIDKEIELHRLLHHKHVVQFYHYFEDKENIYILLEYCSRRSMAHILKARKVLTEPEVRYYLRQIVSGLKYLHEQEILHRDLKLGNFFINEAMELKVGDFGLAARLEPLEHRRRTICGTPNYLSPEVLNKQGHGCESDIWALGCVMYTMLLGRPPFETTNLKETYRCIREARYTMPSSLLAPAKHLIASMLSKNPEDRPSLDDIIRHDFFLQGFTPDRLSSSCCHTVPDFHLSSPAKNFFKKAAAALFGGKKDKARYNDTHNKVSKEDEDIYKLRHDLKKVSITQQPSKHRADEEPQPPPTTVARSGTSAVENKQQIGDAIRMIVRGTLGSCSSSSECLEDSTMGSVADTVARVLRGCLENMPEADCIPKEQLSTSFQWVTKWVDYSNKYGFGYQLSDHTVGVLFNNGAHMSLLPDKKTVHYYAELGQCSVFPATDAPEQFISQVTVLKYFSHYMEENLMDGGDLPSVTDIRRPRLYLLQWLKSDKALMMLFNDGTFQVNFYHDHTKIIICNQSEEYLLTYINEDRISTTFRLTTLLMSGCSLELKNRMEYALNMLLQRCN
T4 sequence (Q9H4B4 40-646 K91R limits assumed): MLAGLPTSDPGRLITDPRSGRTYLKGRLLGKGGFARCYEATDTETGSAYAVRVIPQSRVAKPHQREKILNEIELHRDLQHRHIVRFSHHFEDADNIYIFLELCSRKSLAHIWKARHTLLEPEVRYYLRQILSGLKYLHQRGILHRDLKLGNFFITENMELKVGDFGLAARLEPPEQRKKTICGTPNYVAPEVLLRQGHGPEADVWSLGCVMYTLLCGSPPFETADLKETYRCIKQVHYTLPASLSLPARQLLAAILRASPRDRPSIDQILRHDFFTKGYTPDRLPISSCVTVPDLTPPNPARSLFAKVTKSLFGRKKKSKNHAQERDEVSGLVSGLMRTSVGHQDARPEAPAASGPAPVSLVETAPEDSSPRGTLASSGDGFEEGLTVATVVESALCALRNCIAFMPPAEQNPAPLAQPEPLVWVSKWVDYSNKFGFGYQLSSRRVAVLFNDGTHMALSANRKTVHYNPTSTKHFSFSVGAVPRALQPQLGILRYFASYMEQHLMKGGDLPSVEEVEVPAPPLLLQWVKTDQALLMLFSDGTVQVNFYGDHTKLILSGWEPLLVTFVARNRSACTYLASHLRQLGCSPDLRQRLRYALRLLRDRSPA

## CC(=O)N[C@@H](CC(C)C)C(=O)N[C@@H](Cc1c[nH]cn1)C(=O)N[C@@H](CO)C(=O)N[C@H](C(=O)N[C@@H](C)C(N)=O)[C@@H](C)OP(=O)(O)O [LHSpTA]
[1]
  Plk1 PBD-binding affinity / inhibition, in words: inhibited the PBD at a moderately reduced level
[2]
  Plk1 binding / precipitation in pull-down, in words: bound to Plk1 almost as efficiently as PLHSpT
[3]
  disruption of the pre-formed PBD-p-Cdc25C complex: disrupted the pre-formed PBD-p-Cdc25C complex nearly as efficiently as PLHSpT
[4]
  interaction with Plk2 PBD by calorimetry, in words: virtually no interactions with Plk2

## CC(=O)N1CCC[C@H]1C(=O)N[C@@H](CC(C)C)C(=O)N[C@@H](Cc1c[nH]cn1)C(=O)N[C@@H](CO)C(=O)N[C@H](C(=O)N[C@@H](C)C(N)=O)[C@@H](C)C(F)(F)P(=O)(O)O [compound 25, PLHS-F2Pmab-A] (Ac-PLHS[X1]A-NH2)
[5]
  toxicity: significant toxicity

## COCCOCCOCCOCCOCCOCCOCCOCCC(=O)N1CCC[C@H]1C(=O)N[C@@H](CC(C)C)C(=O)N[C@@H](Cc1cncn1CCCCCCCCc1ccccc1)C(=O)N[C@@H](CO)C(=O)N[C@H](C(N)=O)[C@@H](C)CP(=O)(O)O [PEG-4j*]
[6]
  Plk2 binding / precipitation in pull-down, in words: failed to significantly interact
[7]
  Plk3 binding / precipitation in pull-down, in words: failed to significantly interact
[8]
  Plk1 delocalization and misaligned chromosomes: drastic Plk1 delocalization from centrosomes and kinetochores, and severe misaligned chromosomes
  mitotic arrest / apoptotic cell death / cellular response: effectively induced mitotic arrest and apoptotic cell death

## CC(=O)N1CCC[C@H]1C(=O)N[C@@H](CC(C)C)C(=O)N[C@@H](Cc1c[nH]cn1)C(=O)N[C@@H](CO)C(=O)N[C@H](C(N)=O)[C@@H](C)OP(=O)(O)O [compound 1, PLHSpT]
[8]
  mitotic arrest / apoptotic cell death / cellular response: failed to elicit a detectable cellular response; also recorded: failed to generate a detectable level of cellular effect
[9]
  Plk1 localization and apoptotic cell death after microinjection: interferes with proper subcellular localization of Plk1 and induces apoptotic cell death

## PLQS[pT] [PLQSpT]
[10]
  initial heats of interaction: -1.1 kcal/mol
[11]
  fold increase of Plk2 binding: 24 fold

## PLHA[Abu(3R-Me,4-PO3H2)] (also called 24; Pmab(S77A)) [PLHA-Pmab]
[12]
  binding result: no binding
[13]
  fold higher molar concentration without inhibition: > 1000 fold
[14]
  binding result: no binding (tested: 300 µM)

## MQS[pT]PL [MQSpTPL]
[15]
  initial heats of interaction: -1.68 kcal/mol
[16]
  efficiency of precipitation relative to Plk1: 27%
